Reference: US20250288632A1, “Viral Entry Inhibitors Derived From Botanicals” (priority 2022, published 2025)
Converted amounts (≈) assume the structure as drawn.

Columns and labels:
[1] = system: wild type SARS-CoV-2 pseudovirion; assay: microbe, parasite or virus in culture; format: cell-based; conditions: Severe acute respiratory syndrome coronavirus 2, read-out: EC50 % Inhibition (μg/mL)
SARS-CoV2 (Vero) = assay: microbe, parasite or virus in culture; format: cell-based, SARS-CoV-2; conditions: Severe acute respiratory syndrome coronavirus 2, Vero, 48 h
SARS-CoV2 (Calu3) = assay: microbe, parasite or virus in culture; format: cell-based, SARS-CoV-2; conditions: Severe acute respiratory syndrome coronavirus 2, Calu-3, 72 h
[2] = Cytotoxicity assay measuring cell proliferation in PBM cells; format: cell-based; conditions: remdesivir
Experimental: Numbers in parentheses indicate percent inhibition at the highest concentration tested. Cytotoxicity assays measuring the cell proliferation in PBM and Vero cells were performed in parallel to the antiviral assays.

SARS-CoV2 (Caco2) = assay: microbe, parasite or virus in culture; conditions: Severe acute respiratory syndrome coronavirus 2, Caco-2, 72 h

Structure (SMILES)	EC50 [1]	EC50 (SARS-CoV2 (Vero); read-out: Anti-SARS-CoV2 (Vero) EC50)	EC90 (SARS-CoV2 (Vero); read-out: Anti-SARS-CoV2 (Vero) EC90)	EC50 (SARS-CoV2 (Calu3); read-out: Anti-SARS-CoV2 (Calu3) EC50)	EC90 (SARS-CoV2 (Calu3); read-out: Anti-SARS-CoV2 (Calu3) EC90)	CC50 [2]	EC50 (SARS-CoV2 (Caco2); read-out: Anti-SARS-CoV2 (Caco2) EC50)	EC90 (SARS-CoV2 (Caco2); read-out: Anti-SARS-CoV2 (Caco2) EC90)
CCN(CCO)CCCC(C)Nc1ccnc2cc(Cl)ccc12 (centres unmarked) [Hydroxy cholorquine]	1.14 µg/mL (≈ 3.39 µM)	–	–	–	–	–	–	–
CCC(CC)COC(=O)[C@H](C)N[P@](=O)(OC[C@H]1O[C@@](C#N)(c2ccc3c(N)ncnn23)[C@H](O)[C@@H]1O)Oc1ccccc1 [Remdesivir]	–	0.6 µM	1.6 µM	0.002 µM	0.02 µM	1.2 µM	0.1 µM	0.4 µM
